Test results from EP0908457B1, “3-(1,2-benzisothiazol- and isoxazol-5-Y1)-2,4(1H,3H)-pyrimidinedione or thione and 3-(1,2-benzisothiazol- and isoxazol-5-y1)-4(3H)-pyrimidinone or thione herbicidal agents” (BASF AKTIENGESELLSCHAFT, priority 1997, dated 1999).

Key:
[1] = system: Echinochloa oryzoides (Ard.) Fritsch.; assay: Preemergence weed control under flooded paddy conditions, ECHORC (Watergrass (Calif.)); assay type: in vivo; conditions: preemergence, flooded paddy; for herbicidal effect rating, ECHORC: meaning of each grade not given here
Cyperus iria = assay: Preemergence weed control under flooded paddy conditions, CYPIR (Rice Flatsedge); assay type: in vivo; conditions: preemergence, flooded paddy; for herbicidal effect rating, CYPIR: meaning of each grade not given here
[2] = system: Cyperus serotinus, Rottb.; assay: Preemergence weed control under flooded paddy conditions, CYPSE (Flatsedge); assay type: in vivo; conditions: preemergence; for herbicidal effect rating, CYPSE: meaning of each grade not given here
[3] = system: Monochoria vaginalis, Presl.; assay: Preemergence weed control under flooded paddy conditions, MOOVA (Monochoria); assay type: in vivo; conditions: preemergence, flooded paddy; for herbicidal effect rating, MOOVA: meaning of each grade not given here
Sagittaria pygmaea, L. = assay: Preemergence weed control under flooded paddy conditions, SAGPY (Arrowhead (Pygmaea)); assay type: in vivo; conditions: preemergence, flooded paddy; for herbicidal effect rating, SAGPY: meaning of each grade not given here
[4] = system: Oryza sativa, (L.) Tebonnet; assay: Rice tolerance to post-transplant applications under flooded paddy conditions (Example 187), ORYSAT (Rice, Tebonnet); for herbicidal effect rating ORYSAT: meaning of each grade not given here
[5] = Rate 0.0320 kg/ha, rated 3-4 weeks after treatment
[6] = Rate 0.0620 kg/ha, rated 3-4 weeks after treatment
[7] = Rate 0.1250 kg/ha, rated 3-4 weeks after treatment
[8] = Rate 0.2500 kg/ha, rated 3-4 weeks after treatment
[9] = 0.0620 kg/ha, rated three to four weeks after treatment
[10] = 0.1250 kg/ha, rated three to four weeks after treatment
[11] = 0.2500 kg/ha, rated three to four weeks after treatment
[12] = 0.0313 kg/ha, rated three to four weeks after treatment
[13] = 0.0625 kg/ha, rated three to four weeks after treatment
[14] = Rate 0.0313 kg/ha, rated three to four weeks after treatment
[15] = Rate 0.0625 kg/ha, rated three to four weeks after treatment
[16] = Rate 0.1250 kg/ha, rated three to four weeks after treatment
[17] = Rate 0.2500 kg/ha, rated three to four weeks after treatment
[18] = Rate 0.0320 kg/ha, rated three to four weeks after treatment
[19] = Rate 0.0620 kg/ha, rated three to four weeks after treatment

C=CCOC(=O)/C=C/c1nsc2ccc(-n3c(=O)cc(C(F)(F)F)n(C)c3=O)cc12 [Example 566, 1,2-Benzisothiazole-3-acrylic acid, 5-[3,6-dihydro-3-methyl-2,6-dioxo-4-(trifluoromethyl)-1(2H)-pyrimidinyl]-, allyl ester, (E)-]
herbicidal effect rating, ECHORC [1, 5]: 3.0
herbicidal effect rating, ECHORC [1, 6]: 3.0
herbicidal effect rating, ECHORC [1, 7]: 3.0
herbicidal effect rating, ECHORC [1, 8]: 6.0
herbicidal effect rating, CYPIR (Cyperus iria; [5]): 0.0
herbicidal effect rating, CYPIR (Cyperus iria; [6]): 0.0
herbicidal effect rating, CYPIR (Cyperus iria; [7]): 0.0
herbicidal effect rating, CYPIR (Cyperus iria; [8]): 9.0
herbicidal effect rating, CYPSE [2, 5]: 0.0
herbicidal effect rating, CYPSE [2, 6]: 0.0
herbicidal effect rating, CYPSE [2, 7]: 0.0
herbicidal effect rating, CYPSE [2, 8]: 3.0
herbicidal effect rating, MOOVA [3, 5]: 9.0
herbicidal effect rating, MOOVA [3, 6]: 9.0
herbicidal effect rating, MOOVA [3, 7]: 9.0
herbicidal effect rating, MOOVA [3, 8]: 9.0
herbicidal effect rating, SAGPY (Sagittaria pygmaea, L.; [5]): 0.0
herbicidal effect rating, SAGPY (Sagittaria pygmaea, L.; [6]): 0.0
herbicidal effect rating, SAGPY (Sagittaria pygmaea, L.; [7]): 0.0
herbicidal effect rating, SAGPY (Sagittaria pygmaea, L.; [8]): 9.0
herbicidal effect rating ORYSAT [4, 6]: 3.0
herbicidal effect rating ORYSAT [4, 7]: 5.0
herbicidal effect rating ORYSAT [4, 8]: 6.0

Cn1c(C(F)(F)F)cc(=O)n(-c2ccc3snc(C(C)(C)C(N)=O)c3c2)c1=O [Example 509, 1,2-Benzisothiazole-3-acetamide, 5-[3,6-dihydro-3-methyl-2,6-dioxo-4-(trifluoromethyl)-1(2H)-pyrimidinyl]-alpha,alpha-dimethyl-]
ECHORC herbicidal rating [1, 9]: 0.0
ECHORC herbicidal rating [1, 10]: 2.0
ECHORC herbicidal rating [1, 11]: 7.0
CYPIR herbicidal rating (Cyperus iria; [9]): 0.0
CYPIR herbicidal rating (Cyperus iria; [10]): 4.0
CYPIR herbicidal rating (Cyperus iria; [11]): 7.0
CYPSE herbicidal rating [2, 9]: 0.0
CYPSE herbicidal rating [2, 10]: 0.0
CYPSE herbicidal rating [2, 11]: 7.0
MOOVA herbicidal rating [3, 9]: 0.0
MOOVA herbicidal rating [3, 10]: 4.0
MOOVA herbicidal rating [3, 11]: 9.0
SAGPY herbicidal rating (Sagittaria pygmaea, L.; [9]): 0.0
SAGPY herbicidal rating (Sagittaria pygmaea, L.; [10]): 3.0
SAGPY herbicidal rating (Sagittaria pygmaea, L.; [11]): 6.0
ORYSAT herbicidal rating (rice tolerance) [4, 9]: 0.0
ORYSAT herbicidal rating (rice tolerance) [4, 10]: 3.0
ORYSAT herbicidal rating (rice tolerance) [4, 11]: 7.0

Cn1c(C(F)(F)F)cc(=O)n(-c2ccc3onc(-c4ccccc4)c3c2)c1=O [Example 25, 1-Methyl-3-(3-phenyl-1,2-benzisoxazol-5-yl)-6-(trifluoromethyl)-2,4(1H,3H)-pyrimidinedione]
herbicidal effect rating, ECHORC [1, 12]: 7.0
herbicidal effect rating, ECHORC [1, 13]: 9.0
herbicidal effect rating, ECHORC [1, 10]: 9.0
herbicidal effect rating, ECHORC [1, 11]: 9.0
herbicidal effect rating, CYPIR (Cyperus iria; [12]): 9.0
herbicidal effect rating, CYPIR (Cyperus iria; [13]): 9.0
herbicidal effect rating, CYPIR (Cyperus iria; [10]): 9.0
herbicidal effect rating, CYPIR (Cyperus iria; [11]): 9.0
herbicidal effect rating, CYPSE [2, 12]: 0.0
herbicidal effect rating, CYPSE [2, 13]: 2.0
herbicidal effect rating, CYPSE [2, 10]: 7.0
herbicidal effect rating, CYPSE [2, 11]: 8.0
herbicidal effect rating, MOOVA [3, 12]: 9.0
herbicidal effect rating, MOOVA [3, 13]: 9.0
herbicidal effect rating, MOOVA [3, 10]: 9.0
herbicidal effect rating, MOOVA [3, 11]: 9.0
herbicidal effect rating, SAGPY (Sagittaria pygmaea, L.; [12]): 0.0
herbicidal effect rating, SAGPY (Sagittaria pygmaea, L.; [13]): 0.0
herbicidal effect rating, SAGPY (Sagittaria pygmaea, L.; [10]): 1.0
herbicidal effect rating, SAGPY (Sagittaria pygmaea, L.; [11]): 4.0
herbicidal effect rating, ORYSAT (rice tolerance) [4, 12]: 4.0
herbicidal effect rating, ORYSAT (rice tolerance) [4, 13]: 6.0
herbicidal effect rating, ORYSAT (rice tolerance) [4, 10]: 7.0
herbicidal effect rating, ORYSAT (rice tolerance) [4, 11]: 7.0

Cn1c(C(F)(F)F)cc(=O)n(-c2ccc3snc(CO)c3c2)c1=O [Example 225, 3-[3-(Hydroxymethyl)-1,2-benzisothiazol-5-yl]-1-methyl-6-(trifluoromethyl)-2,4(1H,3H)-pyrimidinedione]
ECHORC herbicidal effect rating [1, 14]: 0.0
ECHORC herbicidal effect rating [1, 15]: 2.0
ECHORC herbicidal effect rating [1, 16]: 4.0
ECHORC herbicidal effect rating [1, 17]: 7.0
CYPIR herbicidal effect rating (Cyperus iria; [14]): 0.0
CYPIR herbicidal effect rating (Cyperus iria; [15]): 0.0
CYPIR herbicidal effect rating (Cyperus iria; [16]): 2.0
CYPIR herbicidal effect rating (Cyperus iria; [17]): 7.0
CYPSE herbicidal effect rating [2, 14]: 0.0
CYPSE herbicidal effect rating [2, 15]: 0.0
CYPSE herbicidal effect rating [2, 16]: 0.0
CYPSE herbicidal effect rating [2, 17]: 0.0
MOOVA herbicidal effect rating [3, 14]: 8.0
MOOVA herbicidal effect rating [3, 15]: 8.0
MOOVA herbicidal effect rating [3, 16]: 9.0
MOOVA herbicidal effect rating [3, 17]: 9.0
SAGPY herbicidal effect rating (Sagittaria pygmaea, L.; [14]): 0.0
SAGPY herbicidal effect rating (Sagittaria pygmaea, L.; [15]): 0.0
SAGPY herbicidal effect rating (Sagittaria pygmaea, L.; [16]): 0.0
SAGPY herbicidal effect rating (Sagittaria pygmaea, L.; [17]): 0.0
ORYSAT herbicidal effect rating [4, 14]: 3.0
ORYSAT herbicidal effect rating [4, 15]: 4.0
ORYSAT herbicidal effect rating [4, 16]: 6.0
ORYSAT herbicidal effect rating [4, 17]: 7.0

Cn1c(C(F)(F)F)cc(=O)n(-c2ccc3snc(C(=O)NCC(=O)O)c3c2)c1=O [Example 579, Glycine, N-{{5-[3,6-dihydro-3-methyl-2,6-dioxo-4-(trifluoromethyl)-1(2H)-pyrimidinyl]-1,2-benzisothiazol-3-yl}carbonyl}-]
herbicidal effect rating, ECHORC [1, 18]: 2.0
herbicidal effect rating, ECHORC [1, 19]: 4.0
herbicidal effect rating, ECHORC [1, 16]: 4.0
herbicidal effect rating, ECHORC [1, 17]: 5.0
herbicidal effect rating, CYPIR (Cyperus iria; [18]): 0.0
herbicidal effect rating, CYPIR (Cyperus iria; [19]): 0.0
herbicidal effect rating, CYPIR (Cyperus iria; [16]): 4.0
herbicidal effect rating, CYPIR (Cyperus iria; [17]): 6.0
herbicidal effect rating, CYPSE [2, 18]: 0.0
herbicidal effect rating, CYPSE [2, 19]: 0.0
herbicidal effect rating, CYPSE [2, 16]: 0.0
herbicidal effect rating, CYPSE [2, 17]: 0.0
herbicidal effect rating, MOOVA [3, 18]: 6.0
herbicidal effect rating, MOOVA [3, 19]: 7.0
herbicidal effect rating, MOOVA [3, 16]: 7.0
herbicidal effect rating, MOOVA [3, 17]: 9.0
herbicidal effect rating, SAGPY (Sagittaria pygmaea, L.; [18]): 0.0
herbicidal effect rating, SAGPY (Sagittaria pygmaea, L.; [19]): 0.0
herbicidal effect rating, SAGPY (Sagittaria pygmaea, L.; [16]): 0.0
herbicidal effect rating, SAGPY (Sagittaria pygmaea, L.; [17]): 2.0
herbicidal effect rating ORYSAT [4, 18]: 0.0
herbicidal effect rating ORYSAT [4, 19]: 2.0
herbicidal effect rating ORYSAT [4, 16]: 3.0
herbicidal effect rating ORYSAT [4, 17]: 3.0
